According to paper PMC8044546, “Mycobacterium tuberculosis Thymidylyltransferase RmlA Is Negatively Regulated by Ser/Thr Protein Kinase PknB” (Frontiers in Microbiology, 2021):

Key:
RmlA = RmlA (Mycobacterium tuberculosis, UniProt P9WH13)
PknH = PknH (Mycobacterium tuberculosis, UniProt P9WI71)
PknD = PknD (Mycobacterium tuberculosis, UniProt P9WI79)
Sequence of PknD (P9WI79 2-664): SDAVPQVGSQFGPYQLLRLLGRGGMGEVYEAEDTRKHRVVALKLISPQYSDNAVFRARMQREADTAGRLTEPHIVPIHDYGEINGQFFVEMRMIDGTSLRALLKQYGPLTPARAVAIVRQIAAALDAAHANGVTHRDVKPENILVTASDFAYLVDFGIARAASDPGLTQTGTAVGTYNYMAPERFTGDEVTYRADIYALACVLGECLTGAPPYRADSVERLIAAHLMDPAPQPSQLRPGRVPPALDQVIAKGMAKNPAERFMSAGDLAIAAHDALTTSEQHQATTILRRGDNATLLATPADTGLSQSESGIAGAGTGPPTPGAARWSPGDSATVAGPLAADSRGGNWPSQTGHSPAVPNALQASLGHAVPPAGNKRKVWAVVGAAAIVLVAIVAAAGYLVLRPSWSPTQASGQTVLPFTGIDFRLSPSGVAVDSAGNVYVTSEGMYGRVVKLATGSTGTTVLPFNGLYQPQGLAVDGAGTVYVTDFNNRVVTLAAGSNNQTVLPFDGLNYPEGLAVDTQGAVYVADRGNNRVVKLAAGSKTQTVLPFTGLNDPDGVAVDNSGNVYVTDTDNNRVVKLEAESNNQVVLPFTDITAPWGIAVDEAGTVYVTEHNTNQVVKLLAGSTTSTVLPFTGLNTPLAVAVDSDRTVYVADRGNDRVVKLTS

Sequence of RmlA (P9WH13 whole entry): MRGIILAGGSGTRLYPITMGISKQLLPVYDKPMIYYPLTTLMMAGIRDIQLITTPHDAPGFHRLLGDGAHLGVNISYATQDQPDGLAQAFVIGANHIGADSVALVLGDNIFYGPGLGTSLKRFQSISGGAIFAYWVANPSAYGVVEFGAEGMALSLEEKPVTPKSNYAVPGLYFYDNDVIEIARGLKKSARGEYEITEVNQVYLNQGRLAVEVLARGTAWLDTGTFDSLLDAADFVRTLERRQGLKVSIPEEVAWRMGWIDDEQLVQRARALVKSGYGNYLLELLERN
Sequence of PknH (P9WI71 whole entry): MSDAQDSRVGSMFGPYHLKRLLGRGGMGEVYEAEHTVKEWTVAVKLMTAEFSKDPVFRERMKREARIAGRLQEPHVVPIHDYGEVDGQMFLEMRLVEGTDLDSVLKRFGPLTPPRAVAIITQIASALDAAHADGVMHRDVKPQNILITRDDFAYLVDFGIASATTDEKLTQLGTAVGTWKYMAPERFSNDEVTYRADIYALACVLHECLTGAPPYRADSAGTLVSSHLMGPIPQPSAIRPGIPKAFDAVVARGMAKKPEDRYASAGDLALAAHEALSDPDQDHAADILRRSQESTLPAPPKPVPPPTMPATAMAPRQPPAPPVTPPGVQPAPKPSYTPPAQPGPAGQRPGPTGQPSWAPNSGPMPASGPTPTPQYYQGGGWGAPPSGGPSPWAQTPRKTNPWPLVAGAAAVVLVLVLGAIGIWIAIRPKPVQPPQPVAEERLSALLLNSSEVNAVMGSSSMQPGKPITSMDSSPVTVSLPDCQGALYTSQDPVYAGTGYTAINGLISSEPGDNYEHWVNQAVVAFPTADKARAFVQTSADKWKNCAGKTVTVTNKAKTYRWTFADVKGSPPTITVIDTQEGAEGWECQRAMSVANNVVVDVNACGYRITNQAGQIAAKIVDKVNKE

Cc1cn([C@H]2C[C@H](O)[C@@H](COP(=O)(O)OP(=O)(O)OP(=O)(O)O)O2)c(=O)[nH]c1=O [dTTP]
malachite green phosphate assay coupled with pyrophosphatase (RmlA): ability of RmlA to convert D-Glc-1-P and dTTP to D-Glc-dTDP and PPi

O=P(O)(O)O[C@H]1O[C@H](CO)[C@@H](O)[C@H](O)[C@H]1O [D-Glc-1-P]
malachite green phosphate assay coupled with pyrophosphatase (RmlA): ability of RmlA to convert D-Glc-1-P and dTTP to D-Glc-dTDP and PPi

Nc1ncnc2c1ncn2[C@@H]1O[C@H](COP(=O)(O)OP(=O)(O)OP(=O)(O)O)[C@@H](O)[C@H]1O [[γ-^32P]ATP]
autophosphorylation assay (PknH): three kinases, i.e., PknB, PknD, and PknH, demonstrated high kinase activities | autophosphorylation assay (PknD): three kinases, i.e., PknB, PknD, and PknH, demonstrated high kinase activities
